Where two headings read alike, the source gives them in different places.
What was measured:
HLA-E [1] = tested on: HLA-E; set-up: method as in Walters et al. 2020; conditions: sandwich ELISA (3D12 anti-HLA-E capture, anti-β2M detection) after peptide exchange; normalised signal as percentage of positive control VL9 signal; previously published; ref Walters et al. 2020; cited from earlier work
HLA-E [2] = assay type: binding, human; conditions: for Tm (°C) 12M, HLA-E-β2M-peptide complex thermal stability: pH 8
HLA-E*01:03 = HLA-E*01:03 (Homo sapiens, UniProt P13747); experiment: SEC-SAXS of peptide-refolded HLA-E*01:03 complexes

Sequence: EIEVDDDLIQK [EK11]
- ELISA Rank (%VL9 binding) (HLA-E [1]): minimal binding

Sequence: EKQRESREK [EK9]
- ELISA Rank (%VL9 binding) (HLA-E [1]): < 10%

Sequence: QAISPRTLN [Neg Ctrl pep, reference compound]
- Tm (°C) 12M, HLA-E-β2M-peptide complex thermal stability (HLA-E [2]): 31.8 °C
- ELISA Rank (%VL9 binding) (HLA-E [1]): 0.3%

Sequence: RLPAKAPLL [Mtb44]
- Tm (°C) 12M, HLA-E-β2M-peptide complex thermal stability (HLA-E [2]): 50.6 °C
- ELISA Rank (%VL9 binding) (HLA-E [1]): 97%

Sequence: RMAATAQVL [Mtb14]
- Tm (°C) 12M, HLA-E-β2M-peptide complex thermal stability (HLA-E [2]): 37.8 °C
- ELISA Rank (%VL9 binding) (HLA-E [1]): 48%
- Molecular envelope Vol %change (HLA-E*01:03): −32%

Sequence: RMYNPTNIL [RL9SIV]
- Tm (°C) 12M, HLA-E-β2M-peptide complex thermal stability (HLA-E [2]): 35.2 °C
- ELISA Rank (%VL9 binding) (HLA-E [1]): 22%
- Molecular envelope Vol %change (HLA-E*01:03): −34%

Sequence: RMYSPTSIL [RL9HIV]
- Tm (°C) 12M, HLA-E-β2M-peptide complex thermal stability (HLA-E [2]): 38.2 °C
- ELISA Rank (%VL9 binding) (HLA-E [1]): 43%
- Molecular envelope Vol %change (HLA-E*01:03; % change in model volume following 120 μM excess peptide addition): −42%

Sequence: SQAPLPCVL [BZLF1]
- Tm (°C) 12M, HLA-E-β2M-peptide complex thermal stability (HLA-E [2]): 37.7 °C
- ELISA Rank (%VL9 binding) (HLA-E [1]): 41%
- Dmax (Å), maximum dimension (HLA-E*01:03): 108 Å
- Molecular envelope Vol (Å3) (HLA-E*01:03): 107,950 Å3

Sequence: VMAPRTQLL [VL9 P7Q]
- drop in thermal stability (HLA-E [2]): 6.6 °C

Sequence: VMAPRTVLL [VL9, reference compound]
- Tm (°C) 12M, HLA-E-β2M-peptide complex thermal stability (HLA-E [2]): 49.4 °C
- ELISA Rank (%VL9 binding) (HLA-E [1]): 100%

Source: publication PMC9380258, “Primary and secondary functions of HLA-E are determined by stability and conformation of the peptide-bound complexes” (Cell Reports, 2022)
